Tests used:
CK2α2(h) = molecular target: T1, CK2α2(h) (Homo sapiens, UniProt P19784); assay: Kinase selectivity panel: CK2α2; format: biochemical
T1 construct: purchased Eurofins (Millipore) KinaseProfiler Diversity Panel
Experimental: (§1) To confirm the anti-inflammatory effect was caused by RIPK2 inhibition, compound 14 was subjected to kinase selectivity evaluation (Figure 4). Kinase selectivity profile of compound 14 as shown by the diversity kinase Panel screen against 70 kinases assayed at 1 µM. Among all tested 70 kinases, only five were inhibited over 90% at 1 µM including Fyn, Lyn, BTK, Abl and RIPK2. Three kinases including KDR, CDK9 and LOK were inhibited 50–90% at 1 µM.

PAK2(h) = molecular target: T2, PAK2(h) (Homo sapiens, UniProt Q13177); assay: Kinase selectivity panel: PAK2; format: biochemical; settings: 1 µM
T2 construct: purchased Eurofins (Millipore) KinaseProfiler Diversity Panel
Experimental: as §1

MSK2(h) = molecular target: T3, MSK2(h) (Homo sapiens, UniProt O75676); assay: Kinase selectivity panel: MSK2; format: biochemical
T3 construct: purchased Eurofins (Millipore) KinaseProfiler Diversity Panel
Experimental: as §1

PRAK(h) = molecular target: T4, PRAK(h) (Homo sapiens, UniProt Q8IW41); assay: Kinase selectivity panel: PRAK; format: biochemical; settings: 1 µM
T4 construct: purchased Eurofins (Millipore) KinaseProfiler Diversity Panel
Experimental: as §1

Fyn(h) = molecular target: T5, Fyn(h) (Homo sapiens, UniProt P06241); assay: Kinase selectivity panel: Fyn; format: biochemical
T5 construct: purchased Eurofins (Millipore) KinaseProfiler Diversity Panel
T5 sequence (P06241 whole entry): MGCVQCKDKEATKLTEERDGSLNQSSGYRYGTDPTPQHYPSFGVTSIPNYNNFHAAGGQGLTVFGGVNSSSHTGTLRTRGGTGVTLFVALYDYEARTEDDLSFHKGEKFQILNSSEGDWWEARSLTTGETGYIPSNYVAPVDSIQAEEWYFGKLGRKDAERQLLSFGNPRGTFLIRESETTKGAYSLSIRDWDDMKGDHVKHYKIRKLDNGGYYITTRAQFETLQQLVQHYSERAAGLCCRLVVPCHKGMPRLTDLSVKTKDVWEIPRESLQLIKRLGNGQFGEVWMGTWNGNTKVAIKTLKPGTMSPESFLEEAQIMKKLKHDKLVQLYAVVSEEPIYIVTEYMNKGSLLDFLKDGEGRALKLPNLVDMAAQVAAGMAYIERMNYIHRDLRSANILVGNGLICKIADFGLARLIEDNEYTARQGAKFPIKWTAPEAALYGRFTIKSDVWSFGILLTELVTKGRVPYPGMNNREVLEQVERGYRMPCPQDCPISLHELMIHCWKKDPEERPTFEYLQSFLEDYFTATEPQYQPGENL
Experimental: as §1

CDK6/cyclinD3(h) = molecular target: T6, CDK6/cyclinD3(h) (Homo sapiens, UniProt Q00534); assay: Kinase selectivity panel: CDK6/cyclinD3; format: biochemical
T6 construct: purchased Eurofins (Millipore) KinaseProfiler Diversity Panel
Experimental: as §1

MEK1(h) = molecular target: T7, MEK1(h) (Homo sapiens, UniProt Q02750); assay: Kinase selectivity panel: MEK1; format: biochemical; settings: 1 µM
T7 construct: purchased Eurofins (Millipore) KinaseProfiler Diversity Panel
Experimental: as §1

RIPK2 = molecular target: T8, RIPK2 (Homo sapiens, UniProt O43353); assay: Lipophilic ligand efficiency (LipE); settings: LipE = pIC50 − ClogP
T8 construct: purchased Promega

AO oxidase = molecular target: T9, AO oxidase (Homo sapiens, UniProt Q06278); assay: AO oxidative metabolism in human liver cytosol; format: in vitro ADME; settings: human liver cytosol incubation; inhibitors raloxifene and menadione
T9 construct: could undergo mono oxidative metabolism in the human liver cytosol incubation system; from tissue; host or cells: human liver cytosol
T9 sequence (Q06278 whole entry): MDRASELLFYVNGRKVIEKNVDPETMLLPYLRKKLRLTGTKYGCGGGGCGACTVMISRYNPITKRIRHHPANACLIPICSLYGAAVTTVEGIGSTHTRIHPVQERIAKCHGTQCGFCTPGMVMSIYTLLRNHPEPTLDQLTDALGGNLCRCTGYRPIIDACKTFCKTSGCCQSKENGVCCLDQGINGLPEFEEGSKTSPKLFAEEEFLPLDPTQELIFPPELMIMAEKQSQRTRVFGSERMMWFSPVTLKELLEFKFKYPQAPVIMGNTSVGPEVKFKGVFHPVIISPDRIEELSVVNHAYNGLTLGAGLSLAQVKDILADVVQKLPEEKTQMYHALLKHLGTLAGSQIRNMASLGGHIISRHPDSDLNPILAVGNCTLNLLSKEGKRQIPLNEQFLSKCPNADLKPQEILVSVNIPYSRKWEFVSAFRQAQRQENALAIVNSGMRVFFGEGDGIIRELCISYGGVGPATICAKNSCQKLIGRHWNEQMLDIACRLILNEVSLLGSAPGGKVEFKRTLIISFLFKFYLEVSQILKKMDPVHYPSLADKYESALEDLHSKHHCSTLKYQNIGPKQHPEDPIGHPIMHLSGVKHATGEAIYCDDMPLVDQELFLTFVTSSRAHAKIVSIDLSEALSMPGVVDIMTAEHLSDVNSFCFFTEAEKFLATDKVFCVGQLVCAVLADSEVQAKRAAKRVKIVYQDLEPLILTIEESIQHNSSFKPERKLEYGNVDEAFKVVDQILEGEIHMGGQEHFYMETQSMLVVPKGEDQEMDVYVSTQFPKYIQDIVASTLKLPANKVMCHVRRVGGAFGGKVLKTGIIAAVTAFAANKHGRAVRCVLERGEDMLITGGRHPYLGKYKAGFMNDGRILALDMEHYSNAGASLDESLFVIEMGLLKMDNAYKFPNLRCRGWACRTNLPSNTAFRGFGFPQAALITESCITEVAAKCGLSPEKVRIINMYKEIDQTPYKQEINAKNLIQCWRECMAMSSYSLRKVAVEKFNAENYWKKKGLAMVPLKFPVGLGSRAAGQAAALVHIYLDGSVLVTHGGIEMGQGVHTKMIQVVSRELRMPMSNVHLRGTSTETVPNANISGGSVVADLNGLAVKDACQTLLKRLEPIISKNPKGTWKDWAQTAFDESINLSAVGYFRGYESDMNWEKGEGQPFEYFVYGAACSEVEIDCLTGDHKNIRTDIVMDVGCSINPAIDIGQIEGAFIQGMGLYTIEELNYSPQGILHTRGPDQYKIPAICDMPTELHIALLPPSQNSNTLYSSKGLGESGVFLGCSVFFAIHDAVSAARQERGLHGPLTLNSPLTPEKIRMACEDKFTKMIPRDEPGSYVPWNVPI
Experimental: However, we have done experiment on AO oxidative metabolism of compound 14 and P5. Both compound 14 and P5 could undergo mono oxidative metabolism in the human liver cytosol incubation system.

TAK1(h) = molecular target: T10, TAK1(h) (Homo sapiens, UniProt O43318); assay: Kinase selectivity panel: TAK1; format: biochemical; settings: 1 µM
T10 construct: purchased Eurofins (Millipore) KinaseProfiler Diversity Panel
Experimental: as §1

NEK2(h) = molecular target: T11, NEK2(h) (Homo sapiens, UniProt P51955); assay: Kinase selectivity panel: NEK2; format: biochemical; settings: 1 µM
T11 construct: purchased Eurofins (Millipore) KinaseProfiler Diversity Panel
Experimental: as §1

RIPK1 = molecular target: T12, RIPK1 (Homo sapiens, UniProt Q13546); assay: RIPK1 inhibition rate at 1 µM; format: biochemical
T12 sequence (Q13546 1-671): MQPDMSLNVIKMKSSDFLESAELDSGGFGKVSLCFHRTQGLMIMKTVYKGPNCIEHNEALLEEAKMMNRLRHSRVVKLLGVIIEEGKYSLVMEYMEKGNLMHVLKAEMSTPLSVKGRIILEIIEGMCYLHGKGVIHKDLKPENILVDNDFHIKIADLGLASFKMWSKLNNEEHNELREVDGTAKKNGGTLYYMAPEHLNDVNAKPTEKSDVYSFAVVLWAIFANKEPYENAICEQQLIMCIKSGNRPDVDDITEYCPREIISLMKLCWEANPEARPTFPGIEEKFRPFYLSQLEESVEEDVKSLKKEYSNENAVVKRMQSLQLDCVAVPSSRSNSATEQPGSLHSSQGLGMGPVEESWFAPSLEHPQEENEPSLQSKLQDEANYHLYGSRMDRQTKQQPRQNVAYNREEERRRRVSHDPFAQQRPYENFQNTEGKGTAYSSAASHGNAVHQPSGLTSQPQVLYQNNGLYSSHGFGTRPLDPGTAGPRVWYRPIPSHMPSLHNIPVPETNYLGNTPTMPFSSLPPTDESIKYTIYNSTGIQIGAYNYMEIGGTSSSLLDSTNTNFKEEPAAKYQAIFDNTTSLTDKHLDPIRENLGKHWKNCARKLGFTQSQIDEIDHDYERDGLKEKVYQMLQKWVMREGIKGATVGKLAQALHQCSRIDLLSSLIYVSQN
Experimental: Table 4. Selectivity, ClogP and LipE of compound 14, 15, 21, 32, 36. | column: RIPK1 IR@1µM (%)

CK1γ1(h) = molecular target: T13, CK1γ1(h) (Homo sapiens, UniProt Q9HCP0); assay: Kinase selectivity panel: CK1γ1; format: biochemical; settings: 1 µM
T13 construct: purchased Eurofins (Millipore) KinaseProfiler Diversity Panel
Experimental: as §1

GSK3β(h) = molecular target: T14, GSK3β(h) (Homo sapiens, UniProt P49841); assay: Kinase selectivity panel: GSK3β; format: biochemical; settings: 1 µM
T14 construct: purchased Eurofins (Millipore) KinaseProfiler Diversity Panel
Experimental: as §1

Itk(h) = molecular target: T15, Itk(h) (Homo sapiens, UniProt Q08881); assay: Kinase selectivity panel: Itk; format: biochemical
T15 construct: purchased Eurofins (Millipore) KinaseProfiler Diversity Panel
Experimental: as §1

ALK(h) = molecular target: T16, ALK(h) (Homo sapiens, UniProt Q9UM73); assay: Kinase selectivity panel: ALK; format: biochemical; settings: 1 µM
T16 construct: purchased Eurofins (Millipore) KinaseProfiler Diversity Panel
Experimental: as §1

IRAK1(h) = molecular target: T17, IRAK1(h) (Homo sapiens, UniProt P51617); assay: Kinase selectivity panel: IRAK1; format: biochemical
T17 construct: purchased Eurofins (Millipore) KinaseProfiler Diversity Panel
Experimental: as §1

MST1(h) = molecular target: T18, MST1(h) (Homo sapiens, UniProt Q13043); assay: Kinase selectivity panel: MST1; format: biochemical
T18 construct: purchased Eurofins (Millipore) KinaseProfiler Diversity Panel
Experimental: as §1

SRPK1(h) = molecular target: T19, SRPK1(h) (Homo sapiens, UniProt Q96SB4); assay: Kinase selectivity panel: SRPK1; format: biochemical; parameters: unit not given here
T19 construct: purchased Eurofins (Millipore) KinaseProfiler Diversity Panel
Experimental: as §1

PKCθ(h) = molecular target: T20, PKCθ(h) (Homo sapiens, UniProt Q04759); assay: Kinase selectivity panel: PKCθ; format: biochemical
T20 construct: purchased Eurofins (Millipore) KinaseProfiler Diversity Panel
Experimental: as §1

c-RAF(h) = molecular target: T21, c-RAF(h) (Homo sapiens, UniProt P04049); assay: Kinase selectivity panel: c-RAF; format: biochemical
T21 construct: purchased Eurofins (Millipore) KinaseProfiler Diversity Panel
Experimental: as §1

CaMKI(h) = molecular target: T22, CaMKI(h) (Homo sapiens, UniProt Q14012); assay: Kinase selectivity panel: CaMKI; format: biochemical; settings: 1 µM
T22 construct: purchased Eurofins (Millipore) KinaseProfiler Diversity Panel
Experimental: as §1

Abl(h) = molecular target: T23, Abl(h) (Homo sapiens, UniProt P00519); assay: Kinase selectivity panel: Abl; format: biochemical
T23 construct: purchased Eurofins (Millipore) KinaseProfiler Diversity Panel
T23 sequence (P00519 whole entry): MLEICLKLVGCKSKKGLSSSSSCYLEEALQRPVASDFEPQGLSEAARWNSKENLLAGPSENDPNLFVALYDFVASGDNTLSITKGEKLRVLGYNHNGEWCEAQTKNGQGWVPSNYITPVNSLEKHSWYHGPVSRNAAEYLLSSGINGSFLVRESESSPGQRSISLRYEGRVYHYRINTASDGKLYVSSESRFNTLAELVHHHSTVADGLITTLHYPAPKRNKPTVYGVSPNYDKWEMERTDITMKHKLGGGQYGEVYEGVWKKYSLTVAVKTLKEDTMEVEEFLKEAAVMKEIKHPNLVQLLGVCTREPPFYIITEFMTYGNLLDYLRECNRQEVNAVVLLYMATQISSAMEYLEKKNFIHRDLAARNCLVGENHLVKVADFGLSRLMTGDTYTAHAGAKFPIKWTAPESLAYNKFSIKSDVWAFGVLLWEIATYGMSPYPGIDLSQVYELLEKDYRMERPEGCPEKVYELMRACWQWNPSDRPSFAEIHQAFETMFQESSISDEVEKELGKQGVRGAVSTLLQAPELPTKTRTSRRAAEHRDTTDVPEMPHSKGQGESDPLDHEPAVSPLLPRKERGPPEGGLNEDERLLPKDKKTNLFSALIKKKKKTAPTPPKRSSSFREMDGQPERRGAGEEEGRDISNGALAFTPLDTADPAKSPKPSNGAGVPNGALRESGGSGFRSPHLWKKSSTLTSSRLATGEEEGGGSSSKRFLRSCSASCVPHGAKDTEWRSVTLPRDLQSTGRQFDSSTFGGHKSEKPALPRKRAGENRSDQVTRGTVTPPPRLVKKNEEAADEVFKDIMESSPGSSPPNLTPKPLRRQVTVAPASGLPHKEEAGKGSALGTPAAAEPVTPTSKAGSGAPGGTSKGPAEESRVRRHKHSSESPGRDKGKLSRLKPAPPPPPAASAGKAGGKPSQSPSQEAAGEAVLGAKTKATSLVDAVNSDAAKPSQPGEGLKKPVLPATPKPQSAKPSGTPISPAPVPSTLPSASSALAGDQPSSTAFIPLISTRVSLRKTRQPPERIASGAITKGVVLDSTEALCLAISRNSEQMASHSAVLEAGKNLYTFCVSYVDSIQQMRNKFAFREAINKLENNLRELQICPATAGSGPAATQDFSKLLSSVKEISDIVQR
Experimental: as §1

JAK3(h) = molecular target: T24, JAK3(h) (Homo sapiens, UniProt P52333); assay: Kinase selectivity panel: JAK3; format: biochemical; settings: 1 µM
T24 construct: purchased Eurofins (Millipore) KinaseProfiler Diversity Panel
Experimental: as §1

[1] = molecular target: T25, PI3 Kinase (p110b/p85a)(h) (Homo sapiens, UniProt P42338); assay: Kinase selectivity panel: PI3 Kinase (p110b/p85a); format: biochemical
T25 construct: purchased Eurofins (Millipore) KinaseProfiler Diversity Panel
Experimental: as §1

BTK(h) = molecular target: T26, BTK(h) (Homo sapiens, UniProt Q06187); assay: Kinase selectivity panel: BTK; format: biochemical
T26 construct: purchased Eurofins (Millipore) KinaseProfiler Diversity Panel
T26 sequence (Q06187 whole entry): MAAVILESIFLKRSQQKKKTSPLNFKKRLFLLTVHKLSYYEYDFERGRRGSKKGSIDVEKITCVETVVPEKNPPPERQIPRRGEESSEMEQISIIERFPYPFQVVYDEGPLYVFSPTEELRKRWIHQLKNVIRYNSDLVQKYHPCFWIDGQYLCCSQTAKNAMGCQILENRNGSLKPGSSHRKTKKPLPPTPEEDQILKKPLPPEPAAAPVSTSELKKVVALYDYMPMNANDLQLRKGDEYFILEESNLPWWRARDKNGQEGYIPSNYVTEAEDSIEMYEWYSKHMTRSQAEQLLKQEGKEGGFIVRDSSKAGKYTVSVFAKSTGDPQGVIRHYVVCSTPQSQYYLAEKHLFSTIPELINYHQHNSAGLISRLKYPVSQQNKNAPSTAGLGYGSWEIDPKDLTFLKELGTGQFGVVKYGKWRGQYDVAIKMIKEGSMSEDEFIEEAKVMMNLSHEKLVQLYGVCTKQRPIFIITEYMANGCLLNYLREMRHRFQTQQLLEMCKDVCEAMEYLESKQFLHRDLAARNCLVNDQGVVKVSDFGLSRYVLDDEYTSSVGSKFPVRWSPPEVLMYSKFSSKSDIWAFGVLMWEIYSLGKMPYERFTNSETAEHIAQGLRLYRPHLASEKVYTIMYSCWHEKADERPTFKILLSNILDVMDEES
Experimental: as §1

KDR(h) = molecular target: T27, KDR(h) (Homo sapiens, UniProt P35968); assay: Kinase selectivity panel: KDR; format: biochemical; parameters: KDR(h), 14 @ 1 µM: unit not given here
T27 construct: purchased Eurofins (Millipore) KinaseProfiler Diversity Panel
T27 sequence (P35968 20-1356): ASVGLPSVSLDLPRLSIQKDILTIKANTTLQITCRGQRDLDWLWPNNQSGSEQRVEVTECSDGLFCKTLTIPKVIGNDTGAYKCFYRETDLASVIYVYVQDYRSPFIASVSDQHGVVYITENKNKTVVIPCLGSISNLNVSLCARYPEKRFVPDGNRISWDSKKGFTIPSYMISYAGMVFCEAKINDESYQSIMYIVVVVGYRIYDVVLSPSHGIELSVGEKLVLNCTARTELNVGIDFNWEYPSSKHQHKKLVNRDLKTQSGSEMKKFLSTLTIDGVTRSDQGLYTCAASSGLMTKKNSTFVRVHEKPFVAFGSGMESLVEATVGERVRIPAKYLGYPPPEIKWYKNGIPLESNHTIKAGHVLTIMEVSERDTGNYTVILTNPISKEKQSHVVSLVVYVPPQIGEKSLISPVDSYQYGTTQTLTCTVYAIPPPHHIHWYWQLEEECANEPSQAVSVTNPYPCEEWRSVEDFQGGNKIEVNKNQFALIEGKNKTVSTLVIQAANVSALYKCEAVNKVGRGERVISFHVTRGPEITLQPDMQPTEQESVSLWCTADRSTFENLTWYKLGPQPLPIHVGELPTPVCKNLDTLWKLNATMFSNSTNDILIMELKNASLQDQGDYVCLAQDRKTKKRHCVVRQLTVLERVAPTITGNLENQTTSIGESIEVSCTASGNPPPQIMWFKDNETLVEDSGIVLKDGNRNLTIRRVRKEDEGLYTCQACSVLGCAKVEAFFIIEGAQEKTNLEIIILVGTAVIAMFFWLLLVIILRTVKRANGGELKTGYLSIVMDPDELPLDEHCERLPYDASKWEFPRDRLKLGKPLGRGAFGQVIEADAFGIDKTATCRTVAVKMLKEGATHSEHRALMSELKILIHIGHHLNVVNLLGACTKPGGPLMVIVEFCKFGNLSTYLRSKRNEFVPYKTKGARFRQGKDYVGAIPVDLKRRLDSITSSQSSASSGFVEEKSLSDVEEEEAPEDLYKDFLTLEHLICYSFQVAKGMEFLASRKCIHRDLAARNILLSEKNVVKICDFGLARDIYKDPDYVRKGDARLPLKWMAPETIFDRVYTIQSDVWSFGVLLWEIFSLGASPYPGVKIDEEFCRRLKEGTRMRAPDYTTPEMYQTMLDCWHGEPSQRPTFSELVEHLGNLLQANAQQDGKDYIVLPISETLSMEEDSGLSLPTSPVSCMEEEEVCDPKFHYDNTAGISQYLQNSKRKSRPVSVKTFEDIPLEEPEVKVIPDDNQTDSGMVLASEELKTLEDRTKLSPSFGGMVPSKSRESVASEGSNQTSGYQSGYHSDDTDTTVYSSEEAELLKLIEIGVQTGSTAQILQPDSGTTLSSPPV
Experimental: as §1

Aurora-A(h) = molecular target: T28, Aurora-A(h) (Homo sapiens, UniProt O14965); assay: Kinase selectivity panel: Aurora-A; format: biochemical; settings: 1 µM
T28 construct: purchased Eurofins (Millipore) KinaseProfiler Diversity Panel
Experimental: as §1

## c1cc(-c2ccc3nccc(Nc4ccc5scnc5c4)c3c2)ccn1 [Compound 14, N-(6-(pyridin-4-yl)quinolin-4-yl)benzo[d]thiazol-5-amine]
CK2α2(h)
  Remaining CK2α2 kinase activity (%) with compound 14 at 1 µM: 104
PAK2(h)
  percent remaining kinase activity: 100
MSK2(h)
  MSK2 remaining kinase activity (% of control) with compound 14 at 1 µM: 107
PRAK(h)
  remaining kinase activity (%): 123
Fyn(h); 1 µM
  Fyn remaining activity (%): 0
Fyn(h); at 1 µM
  inhibition at 1 µM: > 90%
CDK6/cyclinD3(h)
  Remaining kinase activity (%) at 1 µM: 100
MEK1(h)
  % remaining MEK1 activity: 105
RIPK2
  LipE: 4.40
AO oxidase
  AO oxidase substrate: metabolic substrates of AO oxidase
TAK1(h)
  Remaining kinase activity (% of control): 90
NEK2(h)
  percent remaining NEK2 kinase activity with compound 14: 88
RIPK1
  RIPK1 IR@1µM (%): <1%
CK1γ1(h)
  Remaining kinase activity (% of control): 93
GSK3β(h)
  remaining kinase activity (%): 75
Itk(h)
  Remaining Itk kinase activity (%) with compound 14 at 1 µM: 78
ALK(h)
  ALK remaining activity (% of control): 77
IRAK1(h)
  IRAK1 remaining activity (% of control) with compound 14 at 1 µM: 91
MST1(h)
  MST1 kinase activity remaining with compound 14 at 1 µM (% of control): 105
SRPK1(h)
  SRPK1(h), 14 @ 1 µM: 111
PKCθ(h)
  remaining kinase activity (% of control) at 1 µM: 74
c-RAF(h)
  c-RAF remaining activity (% of control) with compound 14 at 1 µM: 65
CaMKI(h)
  percent kinase activity remaining: 97
Abl(h); 1 µM
  Abl remaining activity (% of control): 9
Abl(h); at 1 µM
  inhibition at 1 µM: > 90%
JAK3(h)
  Remaining kinase activity (% of control): 100
[1]
  remaining kinase activity (% of control) with compound 14 at 1 µM: 88
BTK(h); 1 µM
  remaining BTK activity (% of control): 4
BTK(h); at 1 µM
  inhibition at 1 µM: > 90%
KDR(h); 1 µM
  KDR(h), 14 @ 1 µM: 11
KDR(h); at 1 µM
  inhibition at 1 µM: 50 to 90%
Aurora-A(h)
  Remaining kinase activity (% of control): 95

— paper PMC9683047, “Design, synthesis and biological evaluation of 4-aminoquinoline derivatives as receptor-interacting protein kinase 2 (RIPK2) inhibitors” (Journal of Enzyme Inhibition and Medicinal Chemistry, 2022)
